Assay results: US12491170B2, “Stable treprostinil prodrugs” (United Therapeutics Corporation, priority 2020, dated 2025)
Read-outs that look alike come from different tables or passages of the source.

Legend:
[1] = Stability in liver microsomes, human; details: for AUC: human
[2] = Stability in liver microsomes, rat
[3] = Stability in liver microsomes, dog
[4] = Stability in cryopreserved hepatocytes, human; details: for AUC: human
[5] = Stability in cryopreserved hepatocytes, rat; details: for AUC: rat
[6] = Stability in cryopreserved hepatocytes, dog; details: for AUC: dog
[7] = Stability in human subcutaneous skin homogenate; details: for AUC: human
[8] = rat
[9] = dog

For `CCCCCC(CCC1C(O)CC2Cc3c(cccc3OCC(=O)O)CC21)OC(=O)CC` (stereo not shown) [LV], the “Trep Concentration 0 min” value [1] was 1.17 µM, the “Trep Concentration 10 min” value [1] was 1.01 µM and the “Trep Concentration 20 min” value [1] was 0.837 µM. The “Trep Concentration 30 min” value [1] was 0.736 µM, the “Trep Concentration 60 min” value [1] was 0.389 µM and the AUC [1] was 44.88 µmol·min/L. The “Trep Concentration 0 min” value [2] was 0.26 µM, the “Trep Concentration 10 min” value [2] was 0.43 µM and the “Trep Concentration 20 min” value [2] was 0.525 µM. For the same compound, the “Trep Concentration 30 min” value [2] was 0.586 µM, the “Trep Concentration 60 min” value [2] was 0.553 µM and the “Trep Concentration 0 min” value [3] was 0.971 µM. For the same compound, the “Trep Concentration 10 min” value [3] was 0.961 µM, the “Trep Concentration 20 min” value [3] was 0.934 µM and the “Trep Concentration 30 min” value [3] was 0.915 µM. For the same compound, the “Trep Concentration 60 min” value [3] was 0.743 µM, the “Trep Concentration (μM) 0 min” value [4] was 0.113 µM and the “Trep Concentration (μM) 15 min” value [4] was 0.725 µM. The “Trep Concentration (μM) 30 min” value [4] was 0.654 µM, the “Trep Concentration (μM) 60 min” value [4] was 0.589 µM and the “Trep Concentration (μM) 120 min” value [4] was 0.527 µM. For the same compound, the “AUC” value [4] was 68.75 µmol·min/L, the “Trep Concentration (μM) 0 min” value [5] was 0.0159 µM and the “Trep Concentration (μM) 15 min” value [5] was 0.506 µM. For the same compound, the “Trep Concentration (μM) 30 min” value [5] was 0.48 µM, the “Trep Concentration (μM) 60 min” value [5] was 0.424 µM and the “Trep Concentration (μM) 120 min” value [5] was 0.391 µM. The “AUC” value [5] was 49.32 µmol·min/L, the “Trep Concentration (μM) 0 min” value [6] was 0.124 µM and the “Trep Concentration (μM) 30 min” value [6] was 0.698 µM. The “Trep Concentration (μM) 60 min” value [6] was 0.599 µM, the “Trep Concentration (μM) 120 min” value [6] was 0.53 µM and the “AUC” value [6] was 71.21 µmol·min/L. For the same compound, the “Trep Concentration 0 min” value [7] was 0.0045 µM, the “Trep Concentration 30 min” value [7] was 0.545 µM and the “Trep Concentration 60 min” value [7] was 0.741 µM. The “Trep Concentration 120 min” value [7] was 0.954 µM, the AUC [7] was 78.38 µmol·min/L and the AUC [8] was 30.87 µmol·min/L. The AUC [9] was 53.25 µmol·min/L.
For `CCCCCC(CCC1C(O)CC2Cc3c(cccc3OCC(=O)O)CC21)OC(=O)CCC(=O)N1CCOCC1` (stereo not shown) [XXXIII], the “Trep Concentration 0 min” value [1] was 0 µM, the “Trep Concentration 10 min” value [1] was 0 µM and the “Trep Concentration 20 min” value [1] was 0 µM. For the same compound, the “Trep Concentration 30 min” value [1] was 0 µM, the “Trep Concentration 60 min” value [1] was 0 µM and the AUC [1] was 0.00 µmol·min/L. The “Trep Concentration 0 min” value [2] was 0.0107 µM, the “Trep Concentration 10 min” value [2] was 0.0193 µM and the “Trep Concentration 20 min” value [2] was 0.0291 µM. The “Trep Concentration 30 min” value [2] was 0.0305 µM, the “Trep Concentration 60 min” value [2] was 0.0498 µM and the “Trep Concentration 0 min” value [3] was 0.0247 µM. The “Trep Concentration 10 min” value [3] was 0.0494 µM, the “Trep Concentration 20 min” value [3] was 0.0751 µM and the “Trep Concentration 30 min” value [3] was 0.0888 µM. The “Trep Concentration 60 min” value [3] was 0.13 µM, the “Trep Concentration (μM) 0 min” value [4] was 0 µM and the “Trep Concentration (μM) 15 min” value [4] was 0.0192 µM. For the same compound, the “Trep Concentration (μM) 30 min” value [4] was 0.0265 µM, the “Trep Concentration (μM) 60 min” value [4] was 0.0464 µM and the “Trep Concentration (μM) 120 min” value [4] was 0.0728 µM. For the same compound, the “AUC” value [4] was 5.16 µmol·min/L, the “Trep Concentration (μM) 0 min” value [5] was 0 µM and the “Trep Concentration (μM) 15 min” value [5] was 0.0753 µM. For the same compound, the “Trep Concentration (μM) 30 min” value [5] was 0.132 µM, the “Trep Concentration (μM) 60 min” value [5] was 0.18 µM and the “Trep Concentration (μM) 120 min” value [5] was 0.238 µM. For the same compound, the “AUC” value [5] was 19.34 µmol·min/L, the “Trep Concentration (μM) 0 min” value [6] was 0 µM and the “Trep Concentration (μM) 15 min” value [6] was 0.0287 µM. For the same compound, the “Trep Concentration (μM) 30 min” value [6] was 0.03796 µM, the “Trep Concentration (μM) 60 min” value [6] was 0.0584 µM and the “Trep Concentration (μM) 120 min” value [6] was 0.0754 µM. For the same compound, the “AUC” value [6] was 6.18 µmol·min/L, the “Trep Concentration 0 min” value [7] was 0 µM and the “Trep Concentration 30 min” value [7] was 0 µM. The “Trep Concentration 60 min” value [7] was 0 µM, the “Trep Concentration 120 min” value [7] was 0 µM and the AUC [7] was 0.00 µmol·min/L. It also gave an AUC [8] of 1.90 µmol·min/L and an AUC [9] of 5.10 µmol·min/L.
For `CCCCCC(CCC1C(O)CC2Cc3c(cccc3OCC(=O)O)CC21)OCCC` (stereo not shown) [XLVI], the “Trep Concentration 0 min” value [1] was 0 µM, the “Trep Concentration 10 min” value [1] was 0.0342 µM and the “Trep Concentration 20 min” value [1] was 0.0556 µM. For the same compound, the “Trep Concentration 30 min” value [1] was 0.0656 µM, the “Trep Concentration 60 min” value [1] was 0.0835 µM and the AUC [1] was 3.46 µmol·min/L. For the same compound, the “Trep Concentration 0 min” value [2] was 0 µM, the “Trep Concentration 10 min” value [2] was 0.0425 µM and the “Trep Concentration 20 min” value [2] was 0.0633 µM. For the same compound, the “Trep Concentration 30 min” value [2] was 0.0882 µM, the “Trep Concentration 60 min” value [2] was 0.123 µM and the “Trep Concentration 0 min” value [3] was 0 µM. The “Trep Concentration 10 min” value [3] was 0.0211 µM, the “Trep Concentration 20 min” value [3] was 0.0334 µM and the “Trep Concentration 30 min” value [3] was 0.0485 µM. The “Trep Concentration 60 min” value [3] was 0.0841 µM, the “Trep Concentration (μM) 0 min” value [4] was 0 µM and the “Trep Concentration (μM) 15 min” value [4] was 0.00507 µM. The “Trep Concentration (μM) 30 min” value [4] was 0.00509 µM, the “Trep Concentration (μM) 60 min” value [4] was 0.00568 µM and the “Trep Concentration (μM) 120 min” value [4] was 0.0061 µM. The “AUC” value [4] was 0.63 µmol·min/L, the “Trep Concentration (μM) 0 min” value [5] was 0 µM and the “Trep Concentration (μM) 15 min” value [5] was 0.0144 µM. The “Trep Concentration (μM) 30 min” value [5] was 0.0194 µM, the “Trep Concentration (μM) 60 min” value [5] was 0.0209 µM and the “Trep Concentration (μM) 120 min” value [5] was 0.0224 µM. For the same compound, the “AUC” value [5] was 2.27 µmol·min/L, the “Trep Concentration (μM) 0 min” value [6] was 0 µM and the “Trep Concentration (μM) 15 min” value [6] was 0.00361 µM. For the same compound, the “Trep Concentration (μM) 30 min” value [6] was 0.00376 µM, the “Trep Concentration (μM) 60 min” value [6] was 0.00437 µM and the “Trep Concentration (μM) 120 min” value [6] was 0.00465 µM. The “AUC” value [6] was 0.47 µmol·min/L, the “Trep Concentration 0 min” value [7] was 0 µM and the “Trep Concentration 30 min” value [7] was 0 µM. The “Trep Concentration 60 min” value [7] was 0 µM, the “Trep Concentration 120 min” value [7] was 0 µM and the AUC [7] was 0.00 µmol·min/L. The AUC [8] was 4.67 µmol·min/L and the AUC [9] was 2.78 µmol·min/L.
With `CCCCCC(CCC1C(O)CC2Cc3c(cccc3OCC(=O)O)CC21)OP(=O)(O)O` (stereo not shown) [VI] the “Trep Concentration 0 min” value [1] was 0.02 µM, the “Trep Concentration 10 min” value [1] was 0.038 µM and the “Trep Concentration 20 min” value [1] was 0.038 µM. The “Trep Concentration 30 min” value [1] was 0.03 µM, the “Trep Concentration 60 min” value [1] was 0.061 µM and the AUC [1] was 2.38 µmol·min/L. The “Trep Concentration 0 min” value [2] was 0.27 µM, the “Trep Concentration 10 min” value [2] was 0.39 µM and the “Trep Concentration 20 min” value [2] was 0.46 µM. The “Trep Concentration 30 min” value [2] was 0.53 µM, the “Trep Concentration 60 min” value [2] was 0.73 µM and the “Trep Concentration 0 min” value [3] was 0.21 µM. For the same compound, the “Trep Concentration 10 min” value [3] was 0.32 µM, the “Trep Concentration 20 min” value [3] was 0.43 µM and the “Trep Concentration 30 min” value [3] was 0.48 µM. For the same compound, the “Trep Concentration 60 min” value [3] was 0.75 µM, the “Trep Concentration (μM) 0 min” value [4] was 0 µM and the “Trep Concentration (μM) 15 min” value [4] was 0.223 µM. For the same compound, the “Trep Concentration (μM) 30 min” value [4] was 0.365 µM, the “Trep Concentration (μM) 60 min” value [4] was 0.466 µM and the “Trep Concentration (μM) 120 min” value [4] was 0.540 µM. The “AUC” value [4] was 48.73 µmol·min/L, the “Trep Concentration (μM) 0 min” value [5] was 0.128 µM and the “Trep Concentration (μM) 15 min” value [5] was 0.693 µM. The “Trep Concentration (μM) 30 min” value [5] was 0.635 µM, the “Trep Concentration (μM) 60 min” value [5] was 0.564 µM and the “Trep Concentration (μM) 120 min” value [5] was 0.53 µM. The “AUC” value [5] was 66.92 µmol·min/L, the “Trep Concentration (μM) 0 min” value [6] was 0.0124 µM and the “Trep Concentration (μM) 30 min” value [6] was 0.609 µM. For the same compound, the “Trep Concentration (μM) 60 min” value [6] was 0.533 µM, the “Trep Concentration (μM) 120 min” value [6] was 0.548 µM and the “AUC” value [6] was 62.94 µmol·min/L. For the same compound, the “Trep Concentration 0 min” value [7] was 0 µM, the “Trep Concentration 30 min” value [7] was 0.6 µM and the “Trep Concentration 60 min” value [7] was 0.93 µM. The “Trep Concentration 120 min” value [7] was 1.07 µM, the AUC [7] was 91.95 µmol·min/L and the AUC [8] was 31.40 µmol·min/L. The AUC [9] was 29.40 µmol·min/L.
With `CCCCCC(CCC1C(O)CC2Cc3c(cccc3OCC(=O)O)CC21)OC(=O)CCN` (stereo not shown) [XXXVII] the “Trep Concentration 0 min” value [1] was 0 µM, the “Trep Concentration 10 min” value [1] was 0.0147 µM and the “Trep Concentration 20 min” value [1] was 0 µM. For the same compound, the “Trep Concentration 30 min” value [1] was 0.0153 µM, the “Trep Concentration 60 min” value [1] was 0.00987 µM and the AUC [1] was 0.60 µmol·min/L. The “Trep Concentration 0 min” value [2] was 0 µM, the “Trep Concentration 10 min” value [2] was 0 µM and the “Trep Concentration 20 min” value [2] was 0 µM. For the same compound, the “Trep Concentration 30 min” value [2] was 0 µM, the “Trep Concentration 60 min” value [2] was 0 µM and the “Trep Concentration 0 min” value [3] was 0.0163 µM. The “Trep Concentration 20 min” value [3] was 0.0295 µM, the “Trep Concentration 30 min” value [3] was 0.0273 µM and the “Trep Concentration 60 min” value [3] was 0.0415 µM. For the same compound, the “Trep Concentration (μM) 0 min” value [4] was 0 µM, the “Trep Concentration (μM) 15 min” value [4] was 0.0481 µM and the “Trep Concentration (μM) 30 min” value [4] was 0.041 µM. For the same compound, the “Trep Concentration (μM) 60 min” value [4] was 0.0715 µM, the “Trep Concentration (μM) 120 min” value [4] was 0.115 µM and the “AUC” value [4] was 8.31 µmol·min/L. For the same compound, the “Trep Concentration (μM) 0 min” value [5] was 0 µM, the “Trep Concentration (μM) 15 min” value [5] was 0.0136 µM and the “Trep Concentration (μM) 30 min” value [5] was 0.0199 µM. The “Trep Concentration (μM) 60 min” value [5] was 0.106 µM, the “Trep Concentration (μM) 120 min” value [5] was 0.0527 µM and the “AUC” value [5] was 7.00 µmol·min/L. The “Trep Concentration (μM) 0 min” value [6] was 0 µM, the “Trep Concentration (μM) 15 min” value [6] was 0.0424 µM and the “Trep Concentration (μM) 30 min” value [6] was 0.0879 µM. The “Trep Concentration (μM) 60 min” value [6] was 0.147 µM, the “Trep Concentration (μM) 120 min” value [6] was 0.248 µM and the “AUC” value [6] was 16.67 µmol·min/L. The “Trep Concentration 0 min” value [7] was 0 µM, the “Trep Concentration 30 min” value [7] was 0 µM and the “Trep Concentration 60 min” value [7] was 0.0137 µM. The “Trep Concentration 120 min” value [7] was 0.0304 µM, the AUC [7] was 1.53 µmol·min/L and the AUC [8] was 0.00 µmol·min/L. It also gave an AUC [9] of 1.72 µmol·min/L.
